Test system: HCT116
Experiment: In Vitro cytotoxicity measured by the cell colony formation assay
Format: cell-based
Conditions: Homo sapiens, HCT-116; 72 h drug incubation, colonies counted after 7 days; concentration producing 50% inhibition of colony formation; read-out: IN VITRO ID 50 (nm) HCT116
Protocol: In Vitro cytotoxicity measured by the cell colony formation assay
Four hundred cells (HCT116) were plated in 60 mm Petri dishes containing 2.7 mL of medium (modified McCoy's 5a medium containing 10% fetal bovine serum and 100 units/mL penicillin and […] streptomycin). The cells were incubated in a CO2 incubator at 37 °C for 5 h for attachment to the bottom of Petri dishes. The compounds identified in Example 2 were made up fresh in medium at ten times the final concentration, and then 0.3 mL of this stock solution was added to the 2.7 mL of medium in the dish. The cells were then incubated with drugs for 72 h at 37 ° C. At the end of incubation the drug-containing media were decanted, the dishes were rinsed with 4 mL of Hank's Balance Salt Solution (HBSS), 5 mL of fresh medium was added, and the dishes were returned to the incubator for colony formation. The cell colonies were counted using a colony counter after incubation for 7 days. Cell survival was calculated and the values of ID50 (the drug concentration producing 50% inhibition of colony formation) were determined for each tested compound.

| SMILES | IC50 |
| --- | --- |
| CCCC(=O)OC1CC2OCC2(OC(C)=O)C2C(OC(=O)c3ccccc3)C3(O)CC(OC(=O)C(O)C(NC(=O)OC(C)C)c4cccs4)C(C)=C(C(O)C(=O)C12C)C3(C)C (stereo not shown) [Compound 4135] | < 1 nM |
| CCCC(=O)OC1CC2OCC2(OC(C)=O)C2C(OC(=O)c3ccccc3)C3(O)CC(OC(=O)C(O)C(NC(=O)c4ccco4)c4cccs4)C(C)=C(C(O)C(=O)C12C)C3(C)C (stereo not shown) [Compound 4219] | 29 nM |
| CCC(=O)OC1CC2OCC2(OC(C)=O)C2C(OC(=O)c3ccccc3)C3(O)CC(OC(=O)C(O)C(NC(=O)OCC(C)C)c4ccsc4)C(C)=C(C(O)C(=O)C12C)C3(C)C (stereo not shown) [Compound 4544] | < 10 nM |
| CCCC(=O)O[C@H]1C[C@H]2OC[C@@]2(OC(C)=O)[C@H]2[C@H](OC(=O)c3ccccc3)[C@]3(O)C[C@H](OC(=O)[C@H](O)[C@@H](NC(=O)OC(C)(C)CC)c4ccco4)C(C)=C([C@@H](O)C(=O)[C@]12C)C3(C)C [Compound 6272] | < 1 nM |
| CCC(=O)O[C@H]1C[C@H]2OC[C@@]2(OC(C)=O)[C@H]2[C@H](OC(=O)c3ccccc3)[C@]3(O)C[C@H](OC(=O)[C@H](O)[C@@H](NC(=O)OC(C)(C)C)c4ccncc4)C(C)=C([C@@H](O)C(=O)[C@]12C)C3(C)C [Compound 1386] | < 1 nM |
| C/C=C/C(=O)N[C@@H](c1ccoc1)[C@@H](O)C(=O)O[C@H]1C[C@@]2(O)[C@@H](OC(=O)c3ccccc3)[C@@H]3[C@]4(OC(C)=O)CO[C@@H]4C[C@H](OC(=O)CC)[C@@]3(C)C(=O)[C@H](O)C(=C1C)C2(C)C [Compound 4898] | < 1 nM |
| CCC(=O)OC1CC2OCC2(OC(C)=O)C2C(OC(=O)c3ccccc3)C3(O)CC(OC(=O)C(O)C(NC(=O)c4cccnc4)c4cccs4)C(C)=C(C(O)C(=O)C12C)C3(C)C (stereo not shown) [Compound 4106] | < 10 nM |
| CCC(=O)OC1CC2OCC2(OC(C)=O)C2C(OC(=O)c3ccccc3)C3(O)CC(OC(=O)C(O)C(NC(=O)C=C(C)C)c4cccs4)C(C)=C(C(O)C(=O)C12C)C3(C)C (stereo not shown) [Compound 4312] | < 1 nM |
| CCCC(=O)O[C@H]1C[C@H]2OC[C@@]2(OC(C)=O)[C@H]2[C@H](OC(=O)c3ccccc3)[C@]3(O)C[C@H](OC(=O)[C@H](O)[C@@H](NC(=O)OCC(C)C)C4CC4)C(C)=C([C@@H](O)C(=O)[C@]12C)C3(C)C [Compound 5202] | < 10 nM |
| CCC(=O)O[C@H]1C[C@H]2OC[C@@]2(OC(C)=O)[C@H]2[C@H](OC(=O)c3ccccc3)[C@]3(O)C[C@H](OC(=O)[C@H](O)[C@H](C=C(C)C)NC(=O)OCC(C)C)C(C)=C([C@@H](O)C(=O)[C@]12C)C3(C)C [Compound 5121] | 21.1 nM |
| C/C=C/C(=O)O[C@H]1C[C@H]2OC[C@@]2(OC(C)=O)[C@H]2[C@H](OC(=O)c3ccccc3)[C@]3(O)C[C@H](OC(=O)[C@H](O)[C@@H](NC(=O)OC(C)(C)C)c4cccs4)C(C)=C([C@@H](O)C(=O)[C@]12C)C3(C)C [Compound 6686] | < 1 nM |
| CCC(=O)O[C@H]1C[C@H]2OC[C@@]2(OC(C)=O)[C@H]2[C@H](OC(=O)c3ccccc3)[C@]3(O)C[C@H](OC(=O)[C@H](O)[C@@H](NC(=O)OCC(C)C)c4ccco4)C(C)=C([C@@H](O)C(=O)[C@]12C)C3(C)C [Compound 3196] | < 10 nM |
| CCCC(=O)O[C@H]1C[C@H]2OC[C@@]2(OC(C)=O)[C@H]2[C@H](OC(=O)c3ccccc3)[C@]3(O)C[C@H](OC(=O)[C@H](O)[C@@H](NC(=O)OCC(C)C)c4ccoc4)C(C)=C([C@@H](O)C(=O)[C@]12C)C3(C)C [Compound 4828] | < 10 nM |
| CC(=O)O[C@@]12CO[C@@H]1C[C@H](OC(=O)C(C)C)[C@@]1(C)C(=O)[C@H](O)C3=C(C)[C@@H](OC(=O)[C@H](O)[C@@H](NC(=O)C(C)C)c4ccco4)C[C@@](O)([C@@H](OC(=O)c4ccccc4)[C@H]21)C3(C)C [Compound 6121] | < 10 nM |
| CCC(C)(C)OC(=O)N[C@@H](c1ccco1)[C@@H](O)C(=O)O[C@H]1C[C@@]2(O)[C@@H](OC(=O)c3ccccc3)[C@@H]3[C@]4(OC(C)=O)CO[C@@H]4C[C@H](OC(=O)CC(C)C)[C@@]3(C)C(=O)[C@H](O)C(=C1C)C2(C)C [Compound 6282] | < 10 nM |
| CCCC(=O)OC1CC2OCC2(OC(C)=O)C2C(OC(=O)c3ccccc3)C3(O)CC(OC(=O)C(O)C(NC(=O)c4ccccc4)c4cccs4)C(C)=C(C(O)C(=O)C12C)C3(C)C (stereo not shown) [Compound 4175] | < 10 nM |
| CCCC(=O)OC1CC2OCC2(OC(C)=O)C2C(OC(=O)c3ccccc3)C3(O)CC(OC(=O)C(O)C(NC(=O)c4cccs4)c4cccs4)C(C)=C(C(O)C(=O)C12C)C3(C)C (stereo not shown) [Compound 4388] | < 1 nM |
| CCCC(=O)OC1CC2OCC2(OC(C)=O)C2C(OC(=O)c3ccccc3)C3(O)CC(OC(=O)C(O)C(NC(=O)OC(C)(C)C)c4ccoc4)C(C)=C(C(O)C(=O)C12C)C3(C)C (stereo not shown) [Compound 4394] | < 1 nM |
| CCCC(=O)OC1CC2OCC2(OC(C)=O)C2C(OC(=O)c3ccccc3)C3(O)CC(OC(=O)C(O)C(NC(=O)C=C(C)C)c4cccs4)C(C)=C(C(O)C(=O)C12C)C3(C)C (stereo not shown) [Compound 4283] | < 1 nM |
| C/C=C/C(=O)N[C@@H](c1cccs1)[C@@H](O)C(=O)O[C@H]1C[C@@]2(O)[C@@H](OC(=O)c3ccccc3)[C@@H]3[C@]4(OC(C)=O)CO[C@@H]4C[C@H](OC(=O)CC)[C@@]3(C)C(=O)[C@H](O)C(=C1C)C2(C)C [Compound 3560] | < 1 nM |
| CCC(=O)O[C@H]1C[C@H]2OC[C@@]2(OC(C)=O)[C@H]2[C@H](OC(=O)c3ccccc3)[C@]3(O)C[C@H](OC(=O)[C@H](O)[C@@H](NC(=O)c4cccs4)c4cccs4)C(C)=C([C@@H](O)C(=O)[C@]12C)C3(C)C [Compound 3479] | < 1 nM |
| CCOC(=O)NC(c1cccs1)C(O)C(=O)OC1CC2(O)C(OC(=O)c3ccccc3)C3C4(OC(C)=O)COC4CC(OC(=O)CC)C3(C)C(=O)C(O)C(=C1C)C2(C)C (stereo not shown) [Compound 4044] | < 1 nM |
| CCCC(=O)O[C@H]1C[C@H]2OC[C@@]2(OC(C)=O)[C@H]2[C@H](OC(=O)c3ccccc3)[C@]3(O)C[C@H](OC(=O)[C@H](O)[C@@H](NC(=O)OC(C)(C)C)C4CC4)C(C)=C([C@@H](O)C(=O)[C@]12C)C3(C)C [Compound 5080] | < 1 nM |
| CCC(=O)OC1CC2OCC2(OC(C)=O)C2C(OC(=O)c3ccccc3)C3(O)CC(OC(=O)C(O)C(NC(=O)c4cccs4)c4ccco4)C(C)=C(C(O)C(=O)C12C)C3(C)C (stereo not shown) [Compound 3632] | < 1 nM |
| CCCC(=O)OC1CC2OCC2(OC(C)=O)C2C(OC(=O)c3ccccc3)C3(O)CC(OC(=O)C(O)C(NC(=O)OCC(C)C)c4ccco4)C(C)=C(C(O)C(=O)C12C)C3(C)C (stereo not shown) [Compound 4616] | < 1 nM |
| CCC(=O)O[C@H]1C[C@H]2OC[C@@]2(OC(C)=O)[C@H]2[C@H](OC(=O)c3ccccc3)[C@]3(O)C[C@H](OC(=O)[C@H](O)[C@@H](NC(=O)OC(C)(C)C)C4CCC4)C(C)=C([C@@H](O)C(=O)[C@]12C)C3(C)C [Compound 1447] | < 10 nM |
| CCC(=O)O[C@H]1C[C@H]2OC[C@@]2(OC(C)=O)[C@H]2[C@H](OC(=O)c3ccccc3)[C@]3(O)C[C@H](OC(=O)[C@H](O)[C@@H](NC(=O)OC(C)(C)C)c4ccccn4)C(C)=C([C@@H](O)C(=O)[C@]12C)C3(C)C [Compound 1364] | < 10 nM |
| CCOC(=O)N[C@@H](c1ccco1)[C@@H](O)C(=O)O[C@H]1C[C@@]2(O)[C@@H](OC(=O)c3ccccc3)[C@@H]3[C@]4(OC(C)=O)CO[C@@H]4C[C@H](OC(=O)CC)[C@@]3(C)C(=O)[C@H](O)C(=C1C)C2(C)C [Compound 3611] | < 1 nM |

— patent publication EP1285918A1, “C7 Ester substituted taxanes as antitumor agents” (Florida State University Research Foundation, Inc., priority 2001, dated 2003)
